Assay results from patent US20220401564A1 (DANA-FARBER CANCER INSTITUTE, INC., priority 2019, published 2022).

Molecular target: T1, HDAC8 (Homo sapiens, UniProt Q9BY41)
T1 sequence (Q9BY41 1-377): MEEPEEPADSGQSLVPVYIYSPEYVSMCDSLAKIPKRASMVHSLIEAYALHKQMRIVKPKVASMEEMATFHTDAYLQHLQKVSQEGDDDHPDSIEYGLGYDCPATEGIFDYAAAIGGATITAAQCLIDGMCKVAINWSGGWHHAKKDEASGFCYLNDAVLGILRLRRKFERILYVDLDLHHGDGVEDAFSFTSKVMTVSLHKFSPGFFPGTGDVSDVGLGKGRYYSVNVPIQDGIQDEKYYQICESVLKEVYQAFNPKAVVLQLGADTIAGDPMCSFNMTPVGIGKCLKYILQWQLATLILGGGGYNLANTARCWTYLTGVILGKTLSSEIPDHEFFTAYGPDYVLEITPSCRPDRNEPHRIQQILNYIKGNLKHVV
Assay: HDAC enzymatic assay (Reaction Biology), HDAC8 substrate
Assay type: biochemical
Parameters: purchased Reaction Biology
Experimental: Compounds 2 and 9 were tested in an enzymatic assay from Reaction Biology® against HDAC isoforms.
Base Reaction buffer: 50 mM Tris-HCl, pH8.0, 137 mM NaCl, 2.7 mM KCl, and 1 mM MgCl2. Add fresh: 1 mg/ml BSA, 1% DMSO
(HDAC8 only substrate: 50 μM, Arg-His-Lys(Ac)-Lys(Ac))-AMC
1. Delivered 2X enzyme in wells of reaction plate except in the control wells and added buffer to control wells. 2. Delivered compounds in 100% DMSO into the enzyme mixture by Acoustic technology (Echo550; nanoliter range). Spin down and pre-incubation. 3. Delivered 2X Substrate Mixture (Fluorogenic HDAC Substrate and co-factor if applicable) in all reaction wells to initiate the reaction. Spin and shake. 4. Incubated for 30 min for Class 2A, 1 h for HDAC1, 2, 3, and 6, and 2 h for the rest of HDAC isoforms and SIRTs at 30° C. with seal.
5. Added Developer with Trichostatin A (or Nicotinamide for SIRTs) to stop the reaction and to generate fluorescent color. 6. The fluorescence that was generated was detected with excitation (Ex) at […] and emission (Em) at 460 nM by the EnVision Multilabel Plate Reader (PerkinElmer®, Santa Clara, Calif., USA).
IC50 values were derived from a 10-dose response curve. As shown in Tables 1-2, the addition of a linker and CRBN targeting group altered the isoform selectivity of the SAHA-based degrader compounds.

Cc1ncsc1-c1ccc([C@H](C)NC(=O)[C@@H]2C[C@@H](O)CN2C(=O)[C@@H](NC(=O)CCOCCOCCN(CCc2c[nH]c3ccccc23)Cc2ccc(/C=C/C(=O)NO)cc2)C(C)(C)C)cc1 [Compound 2, (2S,4R)-1-((S)-14-(tert-butyl)-3-(4-((E)-3-(hydroxyamino)-3-oxoprop-1-en-1-yl)benzyl)-1-(1H-indol-3-yl)-12-oxo-6,9-dioxa-3,13-diazapentadecan-15-oyl)-4-hydroxy-N—((S)-1-(4-(4-methylthiazol-5-yl)phenyl)ethyl)pyrrolidine-2-carboxamide]
inhibition of HDAC8 deacetylase activity in vitro (in words): Moderate inhibition
IC50 (10-dose response curve, read-out: Compound IC50 (M), HDAC8): 1.16e-06 M
